The results in this text go back to patent publication US12559504B2, “Benzotriazole derivative” (UBE CORPORATION, priority 2019, dated 2026).

A value given as a limit tells only on which side of the number the result lay.

Series [1] in a line: Metabolism test using human liver microsome fractions. In kind it is in vitro ADME. To be noted: human liver microsomes, test compound 10 μmol/L, NADPH and UDP-glucuronic acid, 37° C. How it is done: A reaction composition solution (comprising NADPH Regenerating System, Solution A (manufactured by Corning Inc., REF. 451220) (50 μL), NADPH Regenerating System, Solution B (manufactured by Corning Inc., REF. 451200) (10 μL), 250 mM UDP-glucuronic acid (40 μL), UGT Reaction Mix Solution B (manufactured by Corning Inc., REF. 451320) (200 μL), and distilled water (640 μL)) in which human liver microsomes (manufactured by Xenotech, Cat. No. H610) or monkey liver microsomes (manufactured by Xenotech, Cat. No. P2000) (corresponding to 1 mg of protein) were suspended was prepared. After the solution was incubated at 37° C. for 5 minutes, each test compound dissolved into DMSO (manufactured by FUJIFILM Wako Pure Chemical Corporation, Code No. 043-07216) was added to the solution so that the final concentration was set to be 10 μmol/L, and a reaction was initiated. After 0, 5, 10, 15, 20, and 30 minute(s) from the initiation of the metabolism reaction, 100 μL of the reaction solution was taken out of the reaction system, and added to 200 μL of acetonitrile to stop the reaction. After the reaction was completed, the reaction solution was subjected to a work-up such as deproteinization, and then subjected to an UV-HPLC analysis to carry out the following analysis.
The peak area of each test compound was calculated by LabSolution software (Shimadzu Corporation), and the residual ratio (%) at each culture time of test material was calculated by the following equation. Residual ratio (%)=Peak area at each culture time[…]Peak area at 0 (initial time)
Next, the residual amount (nmol/mg/mL) at each culture time of test material was calculated by the following equation. Residual amount (nmol/mg/mL)=Initial concentration of reaction solution (10 nmol/mg/mL)×residual ratio÷100
Finally, a graph in which the reaction time was plotted at horizontal axis and the residual amount was plotted at longitudinal axis was prepared on Excel, and the inclination was calculated as the elimination rate (pmol/min/mg-P) within the time range in which the graph was deemed linear.

The target in series [2] is T1, GST fusion human Keap1 (amino acid residue: 325-624) protein (Homo sapiens, UniProt Q14145).
T1 construct: GST fusion human Keap1 (amino acid residue: 325-624) protein; purchased Protein tech Ag0779
In words: Keap1-Nrf2 binding inhibition test (fluorescence polarization). To be noted: compound concentration of 100 nM; read-out: inhibition rate. How it is done: The inhibitory activity of each test compound on the binding between Nrf2 and Keap1 was measured by the fluorescence polarization method. A solution consisting of 20 mM tris-hydrochloride pH7.5 (NIPPON GENE CO., LTD., REF: 318-90225), 150 mM NaCl [FUJIFILM Wako Pure Chemical. Corporation, REF: 191-01665], 0.05% Tween 20 (BioRAD, REF: 161-0781), and 5 mM DTT (FUJIFILM Wako Pure Chemical Corporation, REF: 049-08972) was used as a buffer solution. To a test compound solution (70 μL) adjusted to each concentration with 10% DMSO (FUJIFILM Wako Pure Chemical Corporation, REF: 043-07216) was added a buffer solution (350 μL) comprising 6 nM FITC-labeled Nrf2 peptide (FITC-Ahx-LDEETGEFL-NH2, Invitrogen) and 0.2 mg/mL of BSA (FUJIFILM Wako Pure Chemical Corporation, REF: 017-22231). Each 120 μL of the resulting mixture was dispensed into a black 96 well plate, and a buffer solution (80 μL) comprising 2.5 nM GST fusion human Keap1 (amino acid residue: 325-624) protein (Protein tech, REF: Ag0779) was added thereto. A Keap1-free buffer solution was added to some wells to prepare negative controls. Meanwhile, compound-free wells were used as positive controls. The plate was incubated at room temperature for 30 minutes, and each fluorescence polarization at excitation wavelength of 482 nm and fluorescence wavelength of 530 nm was measured by using a plate reader Clariostar (BMG Labtech). The fluorescence polarization of the negative control was set to be 100% inhibition, fluorescence polarization of the positive control was set to be 0% inhibition, and the inhibition rate of each test compound at 100 nM was calculated by using the following equation. Inhibition rate (%)=100−((Fluorescence polarization when test compound was added−Fluorescence polarization of negative control)/(Fluorescence polarization of positive control−Fluorescence polarization of negative control))×100

Series [3] relates to NQO1. The series can be described thus: NQO1 enzyme induction test (in vitro) in Hepa1c1c7 cells. To be noted: Mus musculus, Hepa-1c1c7, 48 h, concentration to elevate the NQO1 activity by 1.5 times, about 48 hours, read-out: EC150. In kind it is cell-based. How it is done: Each NQO1 assay was carried out by modifying a known method (Anal Biochem 1998; 169: 328-, Methods Enzymol 2004; 382: 243-). Hepa1c1c7 cells (mouse hepatocyte line manufacture by DS Pharma Biomedical Co., Ltd., REF. No. 95090613) were cultured (5% CO2, 37° C.). The cells were cultured in MEMα (manufactured by FUJIFILM Wako Pure Chemical Corporation, REF. 135-15175) medium comprising 10% FBS (manufactured by GIBCO, REF. 10082) and […]/streptomycin/amphotericin B (manufactured by GIBCO, REF. 15240), and dispensed into a 96 well plate (manufactured by Costar, REF. 3610) at 2.0×10^3 cells/well. On the next day, test compound (final concentration of […]: 0.1%) dissolved into DMSO (manufactured by FUJIFILM Wako Pure Chemical Corporation, REF. 043-07216) was added to each well, and the plate was further cultured for about 48 hours.
A cell lysate manufactured by Cell signaling Technology, Inc. (REF. 9803) with the addition of a Protease Inhibitor manufactured by Roche Diagnostics K.K. (REF. 11-873580001) was used. A reaction solution (which is a solution comprising trishydrochloric acid (25 mM), albumin […], Tween-20 (0.01%), glucose-6-phosphate dehydrogenase (2 U/mL), flavin-adenine dinucleotide (5 μM), glucose-6-phosphate (1 μM), nicotinamide adenine dinucleotide phosphate (30 μM), 3-(4,5-dimethyl-2-thiazolyl)-2,5-diphenyltetrazolium bromide (MTT) (0.03%), and menadione (50 μM)), and a stop solution (which is a solution comprising dicumarol (0.3 mM) and potassium dihydrogen phosphate (5 mM), pH 7.4) were prepared. After the medium was removed, cell lysate (50 μL) was added thereto, and the resulting mixture was shaken at room temperature for 20 minutes. The reaction solution (200 μL) was added thereto, and the resulting mixture was left to stand at room temperature for 5 minutes. The stop solution (50 μL) was added thereto, and absorbance at 540 nm (reference 750 nm) was measured.
Cell number was measured by Cell Titer Glo assay (manufactured by Promega Corporation, REF. G9242) by using another plate prepared according to the same conditions as those described above, and correction of absorbance was carried out. The test result was analyzed by Excel, and the EC150 value which is the concentration to elevate the NQO1 activity by 1.5 times was calculated.

Series [4] relates to NQO1. In words: NQO1 expression induction test in mouse kidney (single administration). In kind it is in vivo. To be noted: Mus musculus, po, 6 h, Dose 10 mg/kg, BALB/c mouse kidney, 6 hours after administration, ratio to control group. Here is the method: Each test compound solution for administration was prepared by dissolving or suspending each test compound into a 0.5 w/v % aqueous solution of methylcellulose (0.5% MC) (manufactured by Wako Pure Chemical Industries, Ltd.).
Each prepared test compound was orally administered to a BALB/c mouse (female, provided by Charles River Laboratories Japan, Inc.). Non-treated group was used as a control group. After 6 hours from the administration, each mouse was anesthetized with isoflurane, and euthanized with bloodletting by incising a lower aorta. Immediately, the left kidney was excised, cut into small pieces, and then the cut kidney pieces were transferred to RNA later (Thermo Fisher Scientific).
Then, mRNA was extracted from the collected kidney pieces by using NucleoSpin (registered trademark) RNA Kit (Takara Bio Inc.), each concentration was quantified by FlexStation3 (Molecular Devices), and then the concentration was adjusted to a constant concentration. A reverse transcription synthesis of cDNA was carried out from the mRNA with the constant concentration by using PrimeScript™ RT reagent Kit with gDNA Eraser and PCR Thermal Cycler (Takara Bio Inc.). Then, in addition to the resulting cDNA, SYBR (registered trademark) Premix Ex Taq™ II and NQO1, GAPDH primer (Takara Bio Inc.) were used to carry out Real-time PCR by PCR Thermal Cycler Dice Real time (Takara Bio Inc.), and the NQO1 expression was quantified by using the GAPDH expression as the reference.
In order to evaluate the NQO1 expression induction in each group, the NQO1 expression induction ratio was calculated by using the following equation. (NQO1 expression induction ratio)=(Average NQO1 expression in test compound administered group)[…](Average NQO1 expression in control group)

T1 sequence (Q14145 325-624): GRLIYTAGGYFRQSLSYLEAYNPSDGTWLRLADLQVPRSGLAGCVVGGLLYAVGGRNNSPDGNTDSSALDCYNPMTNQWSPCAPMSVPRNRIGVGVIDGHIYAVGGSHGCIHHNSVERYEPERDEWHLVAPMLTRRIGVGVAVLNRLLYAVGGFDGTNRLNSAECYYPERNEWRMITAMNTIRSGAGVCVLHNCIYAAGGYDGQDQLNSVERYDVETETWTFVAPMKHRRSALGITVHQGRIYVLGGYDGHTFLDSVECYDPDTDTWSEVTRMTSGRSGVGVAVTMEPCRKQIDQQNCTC

As for `CC[C@@H]1CN(Cc2cc(C(c3ccc4c(nnn4C)c3C)C3(C(=O)O)CCC3)ccc2C)Cc2cc3ncccc3cc2O1` (single isomer, unassigned) [Example 87], in series [1], the Human metabolic rate result is listed as “A (metabolic rate<100 pmol/min/mg protein)”. Further, the inhibition at 0.1 µM in series [2] is ≥ 50%. Also, in the series on NQO1 [3], the EC (1.5-fold NQO1 activity) is 0.0005 to 0.005 µM.

Take `CC[C@@H]1CN(Cc2cc(C(c3ccc4c(nnn4C)c3C)C(C)(C)C(=O)O)ccc2C)Cc2c(ccc3c2CCCC3)O1` (stereo partly drawn) [Example 5-(b), 3-(1,4-dimethyl-1H-benzo[d][1,2,3)triazol-5-yl)-3-(3-(((R)-4-ethyl-3,4,8,9,10,11-hexahydronaphtho(1,2-f) (1,4]oxazepin-2(1H)-yl)methyl)-4-methylphenyl)-2,2-dimethylpropanoic Acid]: the EC (1.5-fold NQO1 activity) with NQO1 [3] is 0.05 to 0.5 µM.

In the case of `CC[C@@H]1CN(Cc2cc(C(c3ccc4c(nnn4C)c3C)C(C)(C)C(=O)O)ccc2C)Cc2ncc3ccccc3c2O1` (single isomer, unassigned) [Example 45], the fold induction at 10 mg/kg with NQO1 [4] is > 6. Besides, in series [1], the Human metabolic rate entry was “A (metabolic rate<100 pmol/min/mg protein)”. Besides, the inhibition at 0.1 µM in series [2] was ≥ 50%.

In the case of `CC[C@@H]1CN(Cc2cc(C(c3ccc4c(nnn4C)c3C)C(C)(C)C(=O)O)ccc2C)Cc2cnc3ccccc3c2O1` (single isomer, unassigned) [Example 47], the fold induction at 10 mg/kg in the series on NQO1 [4] was > 6. For the same compound, the Human metabolic rate entry in series [1] is reported as “B (100≤metabolic rate<150 pmol/min/mg protein)”. In addition, the inhibition at 0.1 µM in series [2] is ≥ 50%.

In the case of `CC[C@@H]1CN(Cc2cc(C(c3ccc4c(nnn4C)c3C)C(C)(C)C(=O)O)ccc2C)Cc2cc3c(cc2O1)CCCC3` (single isomer, unassigned) [Example 33], the fold induction at 10 mg/kg in the series with NQO1 [4] was 3 to 6. Besides, the Human metabolic rate result in series [1] was “A (metabolic rate<100 pmol/min/mg protein)”. Also, in series [2], the inhibition at 0.1 µM is ≥ 50%.

For the compound `CC[C@@H]1CN(Cc2cc(C(c3ccc4c(nnn4C)c3C)C(C)(C)C(=O)O)ccc2C)Cc2c(ccc3cn[nH]c23)O1` (single isomer, unassigned) [Example 43], in the series with NQO1 [4], the fold induction at 10 mg/kg is > 6. In series [1], the Human metabolic rate entry is reported as “A (metabolic rate<100 pmol/min/mg protein)”. Besides, in series [2], the inhibition at 0.1 µM was ≥ 50%.

Consider `CC[C@H]1CN(Cc2cc(C(c3ccc4c(nnn4C)c3C)C(C)(C)C(=O)O)ccc2C)Cc2ncc3ccccc3c2O1` (single isomer, unassigned) [Example 89-(b)], for which the fold induction at 10 mg/kg in the series on NQO1 [4] lay within 3 to 6. Also, the Human metabolic rate result in series [1] is reported as “E (metabolic rate≥250 pmol/min/mg protein)”. For the same compound, in series [2], the inhibition at 0.1 µM is ≥ 50%.

In the case of `CC[C@@H]1CN(Cc2cc(C(c3ccc4c(nnn4C)c3C)C(C)(C)C(=O)O)ccc2C)Cc2ccc3c(c2O1)CCC3` (single isomer, unassigned) [Example 35], the fold induction at 10 mg/kg in the series on NQO1 [4] was > 6. The Human metabolic rate result in series [1] is reported as “B (100≤metabolic rate<150 pmol/min/mg protein)”. Also, the inhibition at 0.1 µM in series [2] was ≥ 50%.

Consider `CC[C@@H]1CN(Cc2cc(C(c3ccc4c(nnn4C)c3C)C(C)(C)C(=O)O)ccc2C)Cc2cc3c(cc2O1)OC(F)(F)O3` (single isomer, unassigned) [Example 29], for which the fold induction at 10 mg/kg with NQO1 [4] was > 6. In addition, the Human metabolic rate entry in series [1] was “A (metabolic rate<100 pmol/min/mg protein)”. Moreover, the inhibition at 0.1 µM in series [2] was ≥ 50%.

With `CC[C@@H]1CN(Cc2cc(C(c3ccc4c(nnn4C)c3C)C(C)(C)C(=O)O)ccc2C)Cc2cc3ncccc3cc2O1` (single isomer, unassigned) [Example 41], the fold induction at 10 mg/kg with NQO1 [4] is > 6. Further, the Human metabolic rate entry in series [1] was “A (metabolic rate<100 pmol/min/mg protein)”. Further, the inhibition at 0.1 µM in series [2] is ≥ 50%.

Regarding `CC[C@@H]1CN(Cc2cc(C(c3ccc4c(nnn4C)c3C)C(C)(C)C(=O)O)ccc2C)Cc2cc3cccnc3cc2O1` (single isomer, unassigned) [Example 39], in the series on NQO1 [4], the fold induction at 10 mg/kg lay in the range of 3 to 6. Moreover, in series [1], the Human metabolic rate result was “A (metabolic rate<100 pmol/min/mg protein)”. In addition, the inhibition at 0.1 µM in series [2] is ≥ 50%.
